{"source": "ChEMBL document CHEMBL5252612", "about": "“A novel selective estrogen receptor degrader induces cell cycle arrest in breast cancer via ERα degradation and the autophagy-lysosome pathway” (Bioorg Med Chem, 2023)", "key": {"[1]": {"assay": "Induction of cell cycle arrest in tamoxifen-resistant human LCC2 cells assessed as proportion of cells at S phase at 10 uM by flow cytometry (reference value: 28.4%)", "type": "functional"}, "[2]": {"test_system": "T47D", "assay": "Induction of autophagy in human T47D cells assessed as increase in number of lysosomes at 1 to 10 uM by LysoTracker dye based confocal microscopy", "type": "functional, cell-based", "conditions": "dose 1-10 µM"}, "[3]": {"test_system": "T47D", "assay": "Inhibition of colony formation in human T47D cells at 10 uM incubated for 14 days in presence of autophagy inhibitor, 3-MA by crystal violet staining based analysis", "type": "functional, cell-based", "conditions": "time 14.0 day"}, "[4]": {"test_system": "T47D", "assay": "Induction of autophagy in human T47D cells overexpressing ESR1 assessed as increase in LC3 protein expression by western blot analysis", "type": "functional, cell-based"}, "[5]": {"test_system": "T47D", "assay": "Induction of autophagic flux in human T47D cells transfected with mCherry-EGFP-LC3 assessed as increase in red fluorescence at 1 to 10 uM incubated for 24 hrs by confocal microscopic analysis", "type": "functional, cell-based", "conditions": "dose 1-10 µM"}, "[6]": {"test_system": "MCF7", "assay": "Antitumor activity against human MCF7 cells xenografted in BALB/c nude mouse assessed as reduction in tumor weight at 2 to 4 mg/kg, ip administered every other day", "type": "functional, organism-based", "conditions": "dose 2-4 mg/kg"}, "[7]": {"test_system": "T47D", "assay": "Downregulation of ER-alpha mRNA expression in human T47D cells by RT-qPCR analysis", "type": "functional, cell-based"}, "[8]": {"test_system": "T47D", "assay": "Induction of autophagy in human T47D cells assessed as increase in LC3 protein expression at 5 to 10 uM incubated for 24 hrs by western blot analysis", "type": "functional, cell-based", "conditions": "dose 5-10 µM"}, "[9]": {"test_system": "T47D", "assay": "Induction of autophagy in human T47D cells assessed as increase in LC3 puncta formation at 1 to 10 uM incubated for 24 hrs in presence of chloroquine by immunofluorescence assay", "type": "functional, cell-based", "conditions": "dose 1-10 µM"}, "[10]": {"test_system": "T47D", "assay": "Induction of cell cycle arrest in human T47D cells assessed as proportion of cells at G1 phase at 1 uM incubated for 24 hrs by flow cytometry (reference value: 66.6%)", "type": "functional"}, "[11]": {"test_system": "T47D", "assay": "Induction of cell cycle arrest in human T47D cells overexpressing MYC assessed as proportion of cells at G1 phase at 10 uM incubated for 24 hrs by flow cytometry (reference value: 22.1%)", "type": "functional"}, "[12]": {"test_system": "MCF7", "assay": "Induction of cell cycle arrest in human MCF7 cells assessed as proportion of cells at G2 phase at 5 uM incubated for 24 hrs by flow cytometry (reference value: 25.5%)", "type": "functional"}, "[13]": {"test_system": "T47D", "assay": "Induction of autophagy in human T47D cells assessed as decrease in p62 protein expression at 5 to 10 uM incubated for 24 hrs by western blot analysis", "type": "functional, cell-based", "conditions": "dose 5-10 µM"}, "[14]": {"target": "T1, Estrogen receptor (Homo sapiens) (UniProt P03372)", "T1 sequence (whole entry)": "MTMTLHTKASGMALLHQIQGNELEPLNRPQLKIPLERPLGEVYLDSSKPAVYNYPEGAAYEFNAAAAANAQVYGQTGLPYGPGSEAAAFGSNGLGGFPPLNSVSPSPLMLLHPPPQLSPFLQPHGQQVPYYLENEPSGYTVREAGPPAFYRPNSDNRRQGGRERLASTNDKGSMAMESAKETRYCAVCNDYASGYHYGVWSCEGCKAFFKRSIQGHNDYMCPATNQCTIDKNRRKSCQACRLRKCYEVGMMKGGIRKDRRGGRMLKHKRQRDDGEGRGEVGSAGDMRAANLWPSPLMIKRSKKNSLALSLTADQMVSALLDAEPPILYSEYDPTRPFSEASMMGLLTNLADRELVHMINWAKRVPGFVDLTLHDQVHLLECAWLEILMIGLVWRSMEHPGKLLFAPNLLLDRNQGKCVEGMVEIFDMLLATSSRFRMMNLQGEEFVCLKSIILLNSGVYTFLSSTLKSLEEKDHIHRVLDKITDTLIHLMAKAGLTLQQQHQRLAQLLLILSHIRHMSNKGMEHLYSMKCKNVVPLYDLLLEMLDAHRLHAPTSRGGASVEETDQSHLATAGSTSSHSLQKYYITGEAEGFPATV", "assay": "Induction of ER-alpha degradation in tamoxifen-resistant human LCC2 cells assessed as decrease in ER-alpha protein expression at 10 uM by western blot analysis", "type": "cell-based"}, "[15]": {"test_system": "MCF7", "assay": "Induction of apoptosis and necrosis in human MCF7 cells assessed as live cells at 20 uM incubated for 48 hrs by AnnexinV-FITC/PI staining based flow cytometry (reference value: 92.97%)", "type": "functional"}, "[16]": {"test_system": "T47D", "assay": "Induction of cell cycle arrest in human T47D cells assessed as proportion of cells at S phase at 10 uM incubated for 24 hrs by flow cytometry (reference value: 27.7%)", "type": "functional"}, "[17]": {"test_system": "T47D", "assay": "Anticancer activity against ER-alpha positive human T47D cells assessed as reduction in cell viability measured after 48 hrs by CCK8 assay", "type": "functional, cell-based"}, "[18]": {"test_system": "T47D", "assay": "Induction of cell cycle arrest in human T47D cells assessed as proportion of cells at G2 phase at 5 uM incubated for 24 hrs by flow cytometry (reference value: 24.4%)", "type": "functional"}, "[19]": {"test_system": "MCF7", "assay": "Induction of cell cycle arrest in human MCF7 cells assessed as proportion of cells at G1 phase at 5 uM incubated for 24 hrs by flow cytometry (reference value: 46.3%)", "type": "functional"}, "[20]": {"assay": "Induction of cell cycle arrest in tamoxifen-resistant human LCC2 cells assessed as proportion of cells at G1 phase at 1 uM by flow cytometry (reference value: 47.4%)", "type": "functional"}, "[21]": {"test_system": "T47D", "assay": "Induction of autophagy in human T47D cells assessed as upregulation of MAP1LC3B expression at 10 uM incubated for 12 hrs by RNA-seq analysis", "type": "functional, cell-based"}, "[22]": {"test_system": "MCF7", "assay": "Antitumor activity against human MCF7 cells xenografted in BALB/c nude mouse assessed as reduction in tumor volume at 2 to 4 mg/kg, ip administered every other day by caliper analysis", "type": "functional, organism-based", "conditions": "dose 2-4 mg/kg"}, "[23]": {"test_system": "T47D", "assay": "Induction of apoptosis and necrosis in human T47D cells assessed as live cells at 20 uM incubated for 48 hrs by AnnexinV-FITC/PI staining based flow cytometry (reference value: 96.26%)", "type": "functional"}, "[24]": {"target": "T1, Estrogen receptor (Homo sapiens)", "assay": "Induction of ER-alpha degradation in human T47D cells assessed as reduction in ER-alpha stability at 10 uM incubated for 3 to 9 hrs in presence of protein synthesis inhibitor, CHX by CHX chase assay based western blot analysis", "type": "cell-based", "conditions": "time 3-9 hrs"}, "[25]": {"test_system": "MCF7", "assay": "Induction of cell cycle arrest in human MCF7 cells assessed as proportion of cells at G1 phase at 1 uM incubated for 24 hrs by flow cytometry (reference value: 46.3%)", "type": "functional"}, "[26]": {"test_system": "T47D", "assay": "Induction of cell cycle arrest in human T47D cells transfected with empty vector assessed as proportion of cells at G1 phase at 10 uM incubated for 24 hrs by flow cytometry (reference value: 17.1%)", "type": "functional"}, "[27]": {"test_system": "MCF7", "assay": "Induction of cell cycle arrest in human MCF7 cells assessed as proportion of cells at G2 phase at 1 uM incubated for 24 hrs by flow cytometry (reference value: 25.5%)", "type": "functional"}, "[28]": {"test_system": "T47D", "assay": "Anticancer activity against ER-alpha positive human T47D cells assessed as reduction in cell viability at 10 uM measured after 48 hrs by CCK8 assay", "type": "functional, cell-based"}, "[29]": {"test_system": "T47D", "assay": "Induction of cell cycle arrest in human T47D cells overexpressing MYC assessed as proportion of cells at S phase at 10 uM incubated for 24 hrs by flow cytometry (reference value: 24.2%)", "type": "functional"}}, "note": "Calls of active or inactive are those of the source. The calls are words filed in the database; no cut-off is given here.", "data": [{"smiles": "COc1ccc(N(CC(F)(F)F)S(=O)(=O)C2CC3OC2C(c2ccc(OCCN4CCCC4)cc2)=C3c2ccc(O)cc2)cc1", "note": "(stereo not given)", "values": [{"measurement": "Activity", "setting": "[1]", "result": 13.4, "unit": "%"}, {"measurement": "Activity", "setting": "[2]", "result": "Active"}, {"measurement": "inhibition", "setting": "[3]", "result": "inactive"}, {"measurement": "Activity", "setting": "[4]", "result": "Active"}, {"measurement": "Activity", "setting": "[5]", "result": "Active"}, {"measurement": "Activity", "setting": "[6]", "result": "Active"}, {"measurement": "inhibition", "setting": "[7]", "result": "Active"}, {"measurement": "Activity", "setting": "[8]", "result": "Active"}, {"measurement": "Activity", "setting": "[9]", "result": "Active"}, {"measurement": "Activity", "setting": "[10]", "result": 71.1, "unit": "%"}, {"measurement": "Activity", "setting": "[11]", "result": 20.6, "unit": "%"}, {"measurement": "Activity", "setting": "[12]", "result": 16.5, "unit": "%"}, {"measurement": "Activity", "setting": "[13]", "result": "Active"}, {"measurement": "Activity", "setting": "[14]", "result": "Active"}, {"measurement": "Activity", "setting": "[15]", "result": 53.55, "unit": "%"}, {"measurement": "Activity", "setting": "[16]", "result": 10.2, "unit": "%"}, {"measurement": "Activity", "setting": "[17]", "result": "Dose-Dependent Effect"}, {"measurement": "IC50", "setting": "[17]", "result": 18.1, "unit": "µM"}, {"measurement": "Activity", "setting": "[18]", "result": 16.2, "unit": "%"}, {"measurement": "Activity", "setting": "[19]", "result": 65.1, "unit": "%"}, {"measurement": "Activity", "setting": "[20]", "result": 63.9, "unit": "%"}, {"measurement": "Activity", "setting": "[21]", "result": "Active"}, {"measurement": "Activity", "setting": "[22]", "result": "Active"}, {"measurement": "Activity", "setting": "[23]", "result": 78.57, "unit": "%"}, {"measurement": "Activity", "setting": "[24]", "result": "Active"}, {"measurement": "Activity", "setting": "[25]", "result": 63.7, "unit": "%"}, {"measurement": "Activity", "setting": "[26]", "result": 36, "unit": "%"}, {"measurement": "Activity", "setting": "[27]", "result": 18.5, "unit": "%"}, {"measurement": "Activity", "setting": "[28]", "result": "Active"}, {"measurement": "Activity", "setting": "[29]", "result": 22.6, "unit": "%"}]}]}
